Consider two molecules from PMC8807600, “Catalytic trajectory of a dimeric nonribosomal peptide synthetase subunit with an inserted epimerase domain” (Nature Communications, 2022).

Series [1] addresses PchD (Pseudomonas aeruginosa, UniProt Q9HWG3). As to conditions: 10 uM PchE, 10 uM PchD, 10 uM SrfD, 5 mM cysteine, 1 mM salicylate, 5 mM ATP, 10 mM MgCl2, 50 mM Tris pH 7.9, 25 C, 2.5 h; PchD loads salicylate onto ArCP of PchE (coupled read-out).
Series [2] deals with the molecule itself. Kind of series: cryo-EM structure; PchE reacted with PchD (0.5:1), salicylate, cysteine, ATP, MgCl2, then purified on Superose 6 Increase in 50 mM Tricine pH 8.0, 1 mM MgCl2; ~4 mg/mL with 1 mM cysteine and ATP; three conformations at 2.97, 3.78 and 3.47 Å.

PchD, sequence (Q9HWG3 whole entry): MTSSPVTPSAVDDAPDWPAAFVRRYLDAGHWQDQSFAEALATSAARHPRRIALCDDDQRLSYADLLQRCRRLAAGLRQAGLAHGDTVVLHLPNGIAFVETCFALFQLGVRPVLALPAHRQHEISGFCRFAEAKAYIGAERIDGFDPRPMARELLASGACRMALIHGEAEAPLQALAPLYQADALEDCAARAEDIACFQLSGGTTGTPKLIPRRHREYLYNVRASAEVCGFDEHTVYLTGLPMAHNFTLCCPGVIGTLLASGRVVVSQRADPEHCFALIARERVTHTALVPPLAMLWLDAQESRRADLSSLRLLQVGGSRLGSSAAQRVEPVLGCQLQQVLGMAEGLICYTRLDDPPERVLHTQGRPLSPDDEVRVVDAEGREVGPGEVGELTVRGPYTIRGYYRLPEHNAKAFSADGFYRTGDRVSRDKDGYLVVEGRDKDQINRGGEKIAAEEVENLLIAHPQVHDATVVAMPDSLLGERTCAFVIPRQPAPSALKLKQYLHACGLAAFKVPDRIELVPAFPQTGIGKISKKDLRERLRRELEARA

As to `O=C(O)c1ccccc1O` [salicylate], in series [1], the “in vitro reconstitution, HPLC and LC-MS of products” value is “PchD is responsible for loading salicylate onto the ArCP domain of PchE”.

B1: PchE (dihydroaeruginoic acid synthetase, NRPS elongation module of the pyochelin pathway) (enzyme)
chain: MDLPPDSRTALRDWLTEQLADLLGEPLADVRALADDDDLLGCGLDSIRLMYLQERLRARGSTLDFAQLAQRPCLGAWLDLLACADRLSAPATVALPTAQDRDQPFELSSVQQAYWLGRGAGEVLGNVSCHAFLEFRTRDVDPQRLAAAAECVRQRHPMLRARFLDGRQQILPTPPLSCFDLQDWRTLQVDEAERDWQALRDWRAHECLAVERGQVFLLGLVRMPGGEDRLWLSLDLLAADVESLRLLLAELGVAYLAPERLAEPPALHFADYLAHRAAQRAEAAARARDYWLERLPRLPDAPALPLACAPESIRQPRTRRLAFQLSAGESRRLERLAAQHGVTLSSVFGCAFALVLARWSESAEFLLNVPLFDRHADDPRIGEVIADFTTLLLLECRMQAGVSFAEAVKSFQRNLHGAIDHAAFPALEVLREARRQGQPRSAPVVFASNLGEEGFVPAAFRDAFGDLHDMLSQTPQVWLDHQLYRVGDGILLAWDSVVGLFPEGLPETMFEAYVGLLQRLCDSAWGQPADLPLPWAQQARRALLNGQPACATARTLHRDFFLRAAEAPDADALLYRDQRVTRGELAERALRIAGGLREAGVRPGDAVEVSLPRGPQQVAAVFGVLAAGACYVPLDIDQPPARRRLIEEAAGVCLAITEEDDPQALPPRLDVQRLLRGPALAAPVPLAPQASAYVIYTSGSTGVPKGVEVSHAAAINTIDALLDLLRVNASDRLLAVSALDFDLSVFDLFGGLGAGASLVLPAQEQARDAAAWAEAIQRHAVSLWNSAPALLEMALSLPASQADYRSLRAVLLSGDWVALDLPGRLRPRCAEGCRLHVLGGATEAGIWSNLQSVDTVPPHWRSIPYGRPLPGQAYRVVDTHGRDVPDLVVGELWIGGASLARGYRNDPELSARRFVHDAQGRWYRTGDRGRYWGDGTLEFLGRVDQQVKVRGQRIELGEVEAALCAQAGVESACAAVLGGGVASLGAVLVPRLAPRAEGSMDLPAAQPFAGLAEAEAVLTREILGALLEAPLELDDGLRRRWLDWLADSAASALPSLDEALRRLGWQAAGLTAMGNALRGLLAGEQAPAALLLDPWLAPQAVAARLPDGREALARLLEALPTPAAGERLRVAVLDTRAGLWLDQGMASLLRPGLELTLFERSRVLLDAAATRLPERIVVQALDDGLLPAEHLGRYDRVISFAALHAYEASREGLALAAALLRPQGRLLLVDLLCESPLALLGAALLDDRPLRLAELPSLLADLAAAGLAPRCLWRSERIALVEALAPGLGLDAAALQAGLEQRLPQAMRPERLWCLPSLPLNGNGKVDRRRLAESMTRALGECRHEPSAEEPLEAHEQALAECWEAVLKRPVRRREASFFSLGGDSLLATRLLAGIRERFGVRLGMADFYRQPTLAGLARHLQVQTVEIEETQLEEGVL
modifications: phosphopantetheine (pPant) arms on the ArCP and PCP domains; salicyl-pPant or hydroxyphenylthiazolinyl-pPant seen in some conformations
notes: also called Strep II-tagged PchE; source: E. coli BAP1, purified (Strep-Tactin resin, Superose 6 Increase size exclusion)
Consider B1, for which the “stoichiometry N” value in series [2] was found to be 2.

Usually stoichiometry N stands for a count of units in the complex or per binding partner.
